# Data reported in a melting point compilation (Tetko et al.).
row,SMILES,melting point
1,CC(C)NC(=O)CN(C)CC(N)=S,140 to 142 °C
2,CC(CS(C)(=O)=O)C(=O)O (configuration not stated),125 to 127 °C
3,O=C(O)c1cnc(C2CC2)s1,187 to 189 °C
4,Nc1cc(N2C(=O)CCC2=O)ccc1F,215 to 217 °C
5,O=C(O)CCC(=O)N1CCOc2ccccc21,109 to 111 °C
6,Sc1nc2ccccc2n1CCc1ccccc1,177 to 179 °C
7,CCN(c1ccccc1)S(=O)(=O)c1cc(C(=O)O)ccc1C,160 to 162 °C
8,Cc1ccccc1SC(C(=O)O)c1ccccc1 (configuration not stated),100 to 102 °C
9,CC(C)(C)c1ccc(OCCCC(=O)O)cc1,53 to 55 °C
10,Cc1noc(C(F)F)c1C(=O)O,134 to 136 °C
11,CC(O)Cc1cc(F)ccc1Br (configuration not stated),56 to 58 °C
12,CC(O)c1nc2ncc(Br)cc2[nH]1 (configuration not stated),218 to 220 °C
13,Nc1c(C(=O)c2cccs2)oc2ccccc12,173 to 175 °C
14,FC(F)(F)c1nc(Cl)c2sccc2n1,95 to 97 °C
15,CC(C)CC(C(=O)O)N1C(=O)c2ccccc2C1=O (configuration not stated),119 to 121 °C
16,Cc1c(NCC(C)(C)C)cccc1C(=O)O,135 to 137 °C
17,COc1ccc2cc(-c3cc(C(=O)O)c4ccccc4n3)ccc2c1,258 to 260 °C
18,O=C(O)c1cccnc1Oc1ccc(Cl)cc1Cl,191 to 193 °C
19,CCN(CC)C(=O)N1CCCC(C(=O)O)C1 (configuration not stated),94 to 96 °C
20,COCCOc1nc(C(=O)O)cc2ccccc12,145 to 147 °C
21,FC(F)(F)Cn1nnnc1S,122 to 124 °C
22,Cc1cc(-c2noc(CCC(=O)O)n2)ccc1F,124 to 126 °C
23,CCNc1nnc(S)s1,141 to 143 °C
24,Nc1cccc(NC(=O)C2CC2)c1,133 to 135 °C

row,SMILES,melting point
1,COc1ccc(-c2nc(C)c(C(C)=O)s2)cc1,92 to 94 °C
2,NC(=O)C1CNc2ccccc2C1 (configuration not stated),121 to 123 °C
3,Nc1nn(C(=O)c2ccccc2Br)c2ccccc12,224 to 226 °C
4,Cc1cccc(-c2nc(N)n[nH]2)c1[N+](=O)[O-],242 to 244 °C
5,CCC(=O)Nc1cccc(CN)c1,56 to 58 °C
6,NC(=O)NN=Cc1ccccc1O,232 to 234 °C
7,Fc1ccc(CCNC2=NCCS2)cc1,106 to 108 °C
8,Cc1cc(CC#N)no1,36 to 38 °C
9,CC(C#N)CSc1ccccc1N (configuration not stated),65 to 67 °C
10,Cn1nc(C(=O)O)ccc1=O,170 to 175 °C
11,CN(C1CC1)S(=O)(=O)c1ccc(N)cc1,131 to 133 °C
12,Cc1nc(-c2ccc(F)cc2)sc1C(C)O (configuration not stated),113 to 115 °C
13,CS(=O)(=O)Cc1nc(CCl)cs1,80 to 82 °C
14,CC(C)C(=O)Nc1cccc(F)c1C(=O)O,128 to 130 °C
15,O=C(O)CNCc1cccc(Br)c1,213 to 215 °C
16,NS(=O)(=O)c1ccc2c(c1)C(=O)NCC2,240 to 242 °C
17,Cc1nc(C=O)c2ccccn12,115 to 117 °C
18,Nc1nnc(C2COc3ccccc3O2)o1 (configuration not stated),210 to 212 °C
19,OCCc1ccc(O)c(-n2nc3ccccc3n2)c1,120 to 123 °C
20,CC(Cl)C(=O)Nc1ncc(Cl)cc1Cl (configuration not stated),113 to 115 °C
21,O=C(O)CC1CCCN1C(=O)c1ccc(Br)c(F)c1 (configuration not stated),134 to 136 °C
22,COC(=O)Cc1ccc([N+](=O)[O-])s1,50 to 52 °C
23,CC(C)N(C)S(=O)(=O)c1ccc(C(=O)O)cc1,176 to 178 °C
24,CN(c1ccc(O)cc1)S(=O)(=O)c1ccc(F)cc1,152 to 154 °C

row,SMILES,melting point
1,O=C1CN(C(=O)CCl)c2ccccc2N1,114 to 119 °C
2,CCOc1ccc(S(=O)(=O)Cl)cn1,47 to 49 °C
3,Nc1ccc(Cl)c(C(=O)NCc2ccccc2F)c1,95 to 97 °C
4,CCOC(=O)c1cnc2c(C)cc(Br)cc2c1Cl,101 to 103 °C
5,CC1=NN(CC(C)C)C(=O)C1,124 to 126 °C
6,C=CCN1C(=O)C(=O)c2ccccc21,108 to 110 °C
7,O=C(O)c1cccc(NC(=O)C2Cc3ccccc3O2)c1 (configuration not stated),252 to 254 °C
8,CCN(CC)S(=O)(=O)c1ccc(N)c(N)c1,124 to 126 °C
9,CC(C)(C)OC(=O)N1C(=O)N(CC#N)C(C)(C)C1=O,149 to 151 °C
10,Cn1cc(C=O)c(-c2ccccc2)n1,59 to 61 °C
11,Nc1nnc(-c2ccccc2)o1,243 to 245 °C
12,Nc1cnn(-c2ccccc2)c1,95 to 97 °C
13,O=C1NC(=O)C2(CCOCC2)N1,264 to 266 °C
14,CCCCOc1ccc(C=O)cc1OCC,38 to 40 °C
15,O=C(O)Cn1cncn1,199 to 201 °C
16,Cc1cc(C(=O)N2CCCCC2C)ccc1N (configuration not stated),123 to 125 °C
17,Cc1coc(-c2cccc(N)c2)n1,88 to 90 °C
18,O=C(O)c1cc(Br)c2occc2c1,239 to 241 °C
19,Nc1cccc(CS(N)(=O)=O)c1,144 to 146 °C
20,O=C(O)c1csc(-c2cc(Br)cs2)n1,229 to 231 °C
21,O=C1C=C(c2ccccc2)CCC1,63 to 65 °C
22,Nc1ccc(-c2csnn2)cc1,125 to 127 °C
23,Nc1cc(-c2ccccc2Cl)no1,69 to 71 °C
24,Cc1c(Cl)nn2c(C(F)(F)F)nnc2c1C,93 to 95 °C
